Laboratory results published in ChEMBL document CHEMBL4052641 (Eur J Med Chem, 2017).
Values belong to the molecule of their own block, whether it stands above or below them.

Columns and labels:
[1] = Potency index, ratio of quercetin IC50 to compound IC50 for butter milk xanthine oxidase (unknown origin)
[2] = Inhibition of butter milk xanthine oxidase (unknown origin) assessed as reduction in uric acid formation using xanthine as substrate by spectrophotometric assay
[3] = Inhibition of butter milk xanthine oxidase (unknown origin) assessed as reduction in uric acid formation using xanthine as substrate by UV-Vis spectrophotometric assay
[4] = Potency index, ratio of allopurinol IC50 to compound IC50 for butter milk xanthine oxidase (unknown origin)
[5] = molecular target: T1, Xanthine dehydrogenase/oxidase (Bos taurus, UniProt P80457); assay: Competitive inhibition of bovine milk xanthine oxidoreductase assessed as reduction in uric acid formation by spectrophotometric assay
T1 sequence (P80457 whole entry): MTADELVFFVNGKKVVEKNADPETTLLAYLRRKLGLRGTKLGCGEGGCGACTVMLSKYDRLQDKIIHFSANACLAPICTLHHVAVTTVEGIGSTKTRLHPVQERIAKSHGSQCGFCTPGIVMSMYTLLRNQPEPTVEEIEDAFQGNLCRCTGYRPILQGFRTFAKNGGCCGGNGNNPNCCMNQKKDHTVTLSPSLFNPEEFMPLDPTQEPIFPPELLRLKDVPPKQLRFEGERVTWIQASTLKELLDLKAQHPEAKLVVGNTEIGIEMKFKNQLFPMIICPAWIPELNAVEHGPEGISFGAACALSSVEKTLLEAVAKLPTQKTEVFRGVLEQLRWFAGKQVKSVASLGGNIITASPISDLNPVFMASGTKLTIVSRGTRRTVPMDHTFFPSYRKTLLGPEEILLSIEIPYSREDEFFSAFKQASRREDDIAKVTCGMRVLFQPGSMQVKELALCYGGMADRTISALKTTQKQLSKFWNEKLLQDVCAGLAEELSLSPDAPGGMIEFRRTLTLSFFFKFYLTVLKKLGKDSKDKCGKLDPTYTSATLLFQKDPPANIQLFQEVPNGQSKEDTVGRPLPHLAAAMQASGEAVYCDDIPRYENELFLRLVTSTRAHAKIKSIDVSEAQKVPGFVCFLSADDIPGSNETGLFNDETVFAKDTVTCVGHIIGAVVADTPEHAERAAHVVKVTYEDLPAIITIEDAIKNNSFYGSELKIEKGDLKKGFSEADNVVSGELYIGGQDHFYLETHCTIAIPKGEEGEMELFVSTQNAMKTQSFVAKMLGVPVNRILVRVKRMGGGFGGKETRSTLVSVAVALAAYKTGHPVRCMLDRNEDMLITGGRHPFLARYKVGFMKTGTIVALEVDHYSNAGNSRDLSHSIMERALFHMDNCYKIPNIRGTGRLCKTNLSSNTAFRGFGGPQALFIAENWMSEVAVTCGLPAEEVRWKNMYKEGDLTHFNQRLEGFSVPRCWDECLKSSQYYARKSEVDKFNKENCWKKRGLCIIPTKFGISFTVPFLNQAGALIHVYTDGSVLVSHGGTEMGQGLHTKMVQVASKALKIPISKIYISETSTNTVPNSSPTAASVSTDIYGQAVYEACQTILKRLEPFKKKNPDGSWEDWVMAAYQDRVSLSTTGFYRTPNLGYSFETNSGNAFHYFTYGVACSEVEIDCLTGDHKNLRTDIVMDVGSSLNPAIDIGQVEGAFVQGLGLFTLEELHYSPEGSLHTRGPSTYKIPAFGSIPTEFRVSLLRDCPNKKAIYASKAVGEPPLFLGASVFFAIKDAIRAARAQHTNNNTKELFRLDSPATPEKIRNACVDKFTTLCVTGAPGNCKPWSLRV

[6] = molecular target: T1, Xanthine dehydrogenase/oxidase; assay: Inhibition of bovine milk xanthine oxidase assessed as reduction in uric acid formation using xanthine as substrate preincubated for 3 hrs followed by substrate addition measured after 1 min by UV spectrophotometric assay
[7] = molecular target: T1, Xanthine dehydrogenase/oxidase; assay: Potency index, ratio of allopurinol IC50 to compound IC50 for bovine milk xanthine oxidase; conditions: cattle
[8] = molecular target: T2, Xanthine dehydrogenase/oxidase (Homo sapiens, UniProt P47989); assay: Potency index, ratio of allopurinol IC50 to compound IC50 for xanthine oxidase (unknown origin)
T2 sequence (P47989 whole entry): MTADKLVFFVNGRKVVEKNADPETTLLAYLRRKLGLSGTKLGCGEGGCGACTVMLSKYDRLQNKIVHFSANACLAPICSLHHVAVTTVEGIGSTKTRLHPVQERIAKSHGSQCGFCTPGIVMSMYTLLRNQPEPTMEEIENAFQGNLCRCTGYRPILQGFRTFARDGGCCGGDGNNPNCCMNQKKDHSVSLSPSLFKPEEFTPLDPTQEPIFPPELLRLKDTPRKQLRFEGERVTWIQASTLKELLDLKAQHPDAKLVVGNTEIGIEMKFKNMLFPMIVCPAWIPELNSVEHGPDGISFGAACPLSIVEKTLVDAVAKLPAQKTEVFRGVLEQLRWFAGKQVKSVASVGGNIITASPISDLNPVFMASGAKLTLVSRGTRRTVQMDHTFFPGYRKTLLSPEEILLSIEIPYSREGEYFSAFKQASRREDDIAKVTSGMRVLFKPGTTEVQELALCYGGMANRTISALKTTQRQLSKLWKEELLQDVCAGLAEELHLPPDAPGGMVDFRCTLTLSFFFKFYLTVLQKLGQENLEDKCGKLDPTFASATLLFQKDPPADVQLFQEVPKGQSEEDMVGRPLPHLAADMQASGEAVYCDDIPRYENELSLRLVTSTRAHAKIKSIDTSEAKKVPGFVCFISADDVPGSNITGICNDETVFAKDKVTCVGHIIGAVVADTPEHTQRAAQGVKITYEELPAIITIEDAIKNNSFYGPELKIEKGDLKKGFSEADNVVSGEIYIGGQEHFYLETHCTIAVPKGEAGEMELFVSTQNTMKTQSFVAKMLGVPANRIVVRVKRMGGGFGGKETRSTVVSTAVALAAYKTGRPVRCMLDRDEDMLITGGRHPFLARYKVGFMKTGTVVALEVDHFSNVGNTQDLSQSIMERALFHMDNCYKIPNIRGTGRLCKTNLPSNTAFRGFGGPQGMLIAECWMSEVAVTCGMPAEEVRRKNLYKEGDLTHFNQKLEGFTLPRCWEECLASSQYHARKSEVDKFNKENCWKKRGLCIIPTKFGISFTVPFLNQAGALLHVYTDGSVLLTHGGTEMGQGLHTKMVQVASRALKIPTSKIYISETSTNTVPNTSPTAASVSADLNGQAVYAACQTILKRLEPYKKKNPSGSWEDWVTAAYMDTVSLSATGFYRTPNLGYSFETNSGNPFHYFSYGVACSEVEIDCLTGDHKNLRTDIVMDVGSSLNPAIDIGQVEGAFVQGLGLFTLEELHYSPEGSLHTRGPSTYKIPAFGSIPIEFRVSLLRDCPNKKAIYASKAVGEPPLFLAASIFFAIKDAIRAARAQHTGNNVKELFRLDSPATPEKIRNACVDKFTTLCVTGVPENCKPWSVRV

[9] = molecular target: T2, Xanthine dehydrogenase/oxidase; assay: Inhibition of xanthine oxidase (unknown origin) assessed as reduction in uric acid formation using xanthine as substrate after 4 mins by UV-Vis spectrophotometric assay
[10] = molecular target: T1, Xanthine dehydrogenase/oxidase; assay: Inhibition of bovine milk xanthine oxidase assessed as reduction in uric acid formation using xanthine as substrate preincubated for 5 mins followed by substrate addition by UV-Vis spectrophotometric assay
[11] = molecular target: T1, Xanthine dehydrogenase/oxidase; assay: Inhibition of bovine milk xanthine oxidase assessed using xanthine as substrate after 10 mins by fluorometric assay
[12] = Inhibition of butter milk xanthine oxidase (unknown origin) assessed as reduction in uric acid formation using xanthine as substrate by double beam spectrophotometric assay
[13] = molecular target: T2, Xanthine dehydrogenase/oxidase; assay: Inhibition of xanthine oxidase (unknown origin) using xanthine as substrate measured at every 1 mins up to 5 mins
[14] = molecular target: T2, Xanthine dehydrogenase/oxidase; assay: Inhibition of xanthine oxidase (unknown origin) assessed as reduction in uric acid formation using xanthine as substrate after 30 mins by UV-Vis spectrophotometric assay
[15] = molecular target: T1, Xanthine dehydrogenase/oxidase; assay: Inhibition of bovine milk xanthine oxidase assessed as reduction in uric acid formation using xanthine as substrate preincubated for 3 hrs followed by substrate addition by UV-Vis spectrophotometric assay
[16] = molecular target: T1, Xanthine dehydrogenase/oxidase; assay: Potency index, ratio of apigenin IC50 to compound IC50 for bovine milk xanthine oxidase; conditions: cattle
[17] = molecular target: T2, Xanthine dehydrogenase/oxidase; assay: Non-competitive inhibition of human xanthine oxidase
[18] = molecular target: T2, Xanthine dehydrogenase/oxidase; assay: Inhibition of xanthine oxidase (unknown origin) assessed as reduction in uric acid formation using xanthine as substrate after 10 mins

Ratio IC50 [1]: 1.02
IC50 [2]: 5200 to 28200 nM
Compound: O=C(/C=C/c1ccc2c(c1)O[C@@H](c1ccc(O)c(O)c1)[C@@H](C(=O)O)O2)O/C=C\c1ccc(O)c(O)c1

IC50 [3]: 560 nM
Ratio IC50 [4]: 7.5
Compound: CCCCCCSc1nc2c(=O)[nH]cnc2[nH]1

Ki [5]: 5.7 nM
Compound: N#Cc1cc(-c2n[nH]c(-c3ccncc3)n2)ccn1 [TOPIROXOSTAT]

IC50 [6]: 1730 nM
Compound: O=c1c(-c2ccc(O)cc2)coc2cc(O)cc(O)c12 [GENISTEIN]
Ratio IC50 [7]: 2.04

Ratio IC50 [1]: 28.2
IC50 [2]: 13.6 nM
Compound: O=c1cc(-c2ccc(-c3ccccc3)cc2)oc2cc(O)cc(O)c12

IC50 [9]: 16700 nM
Compound: C=CCc1ccc(O)c(O)c1 [HYDROXYCHAVICOL]
Ratio IC50 [8]: 1.84

IC50 [10]: 6240 nM
Compound: O=c1cc(-c2cccnc2)[nH]c2ccccc12
Ratio IC50 [7]: 1.33

Compound: O=c1cc(-c2ccc(O)c(O)c2)oc2cc(O)cc(O)c12 [LUTEOLIN]
Ratio IC50 [7]: 25.32
IC50 [11]: 10200 nM

IC50 [3]: 58 nM
Ratio IC50 [4]: 72.4
Compound: CCOCCCSc1nc2[nH]cnc2c(=O)[nH]1

Ratio IC50 [1]: 8.83
IC50 [2]: 600 to 1100 nM
Compound: O=C(/C=C/c1ccc2c(c1)O[C@H](C(=O)O)[C@H](c1ccc(O)c(O)c1)O2)O/C=C\c1ccc(O)c(O)c1

Ratio IC50 [1]: 4.22
IC50 [2]: 90.8 nM
Compound: CC(C)(C)c1ccc(-c2cc(=O)c3c(O)cc(O)cc3o2)cc1

Compound: O=c1c(O)c(-c2ccc(O)c(O)c2)oc2cc(O)cc(O)c12 [QUERCETIN]
IC50 [12]: 400 nM
IC50 [2]: 383 nM

IC50 [13]: 600 nM
Compound: CC(C)=CCc1cc(C(=O)/C=C/c2ccc(O)c(O)c2)c(O)cc1O [BROUSSOCHALCONE A]
Ratio IC50 [8]: 3.33

IC50 [3]: 1920 nM
Ratio IC50 [4]: 2.19
Compound: CCCCCOC(=O)C(=O)Nc1[nH]cnc1C(N)=O

IC50 [10]: 11200 nM
Compound: O=c1nc(-c2ccncc2)cc(-c2cccc3ccccc23)[nH]1
Ratio IC50 [7]: 1.09

IC50 [14]: 11000 nM
Compound: Oc1c(Cl)cc(Cl)cc1C1Nc2ccccc2-c2cc(-c3ccccc3)nn21 (stereo not drawn)
Ratio IC50 [8]: 2.89

IC50 [10]: 12000 nM
Compound: O=c1nc(-c2ccc(Cl)cc2)cc(-c2ccc(Cl)cc2)[nH]1
Ratio IC50 [7]: 1.02

IC50 [15]: 1260 nM
Compound: O=c1cc(-c2ccccc2)oc2cc(O)cc(O)c12 [CHRYSIN]
Ratio IC50 [7]: 2.33
Ratio IC50 [16]: 2.83

IC50 [3]: 670 nM
Ratio IC50 [4]: 6.27
Compound: CCCOCCSc1nc2[nH]cnc2c(=O)[nH]1

IC50 [13]: 280 nM
Compound: C=CCc1cc(O)c(O)cc1C(C=C)c1ccc(O)c(O)c1 (stereo not drawn)
Ratio IC50 [8]: 25.21

Ratio IC50 [1]: 1.74
IC50 [2]: 220 nM
Compound: COc1ccc(-c2cc(=O)c3c(O)cc(O)cc3o2)cc1 [ACACETIN]

IC50 [10]: 7230 nM
Compound: O=c1nc(-c2ccncc2)cc(-c2ccco2)[nH]1
Ratio IC50 [7]: 1.69

IC50 [13]: 1800 nM
Compound: CC1(C)C=Cc2cc(C(=O)/C=C/c3ccc(O)c(O)c3)c(O)cc2O1
Ratio IC50 [8]: 1.11

IC50 [3]: 1110 nM
Ratio IC50 [4]: 3.78
Compound: CCCCCCOC(=O)C(=O)Nc1[nH]cnc1C(N)=O

IC50 [11]: 71500 nM
Compound: O=c1cc(-c2ccccc2)oc2cc(O)c(O)c(O)c12 [BAICALEIN]
Ratio IC50 [7]: 3.61

Ki [17]: 0.1 nM
Compound: Cc1nc(-c2ccc(OCC(C)C)c(C#N)c2)sc1C(=O)O [FEBUXOSTAT]

IC50 [15]: 3570 nM
Compound: O=c1cc(-c2ccc(O)cc2)oc2cc(O)cc(O)c12 [APIGENIN]

Ratio IC50 [1]: 1.1 to 1.74
IC50 [2]: 347 nM
Compound: O=c1cc(-c2ccc(-c3ccccc3)cc2)oc2cc(O)ccc12

IC50 [18]: 92 nM
Compound: O=C1CC(c2ccc(O)c(-c3c(O)cc(O)c4c3OC(c3ccc(O)cc3)CC4=O)c2)Oc2cc(O)cc(O)c21 (stereo not drawn)
Ratio IC50 [8]: 1.09

IC50 [10]: 10200 nM
Compound: Oc1nc(-c2ccccc2)cc(-c2ccccc2)n1
Ratio IC50 [7]: 1.2

IC50 [3]: 28 nM
Ratio IC50 [4]: 150
Compound: COCCCCSc1nc2[nH]cnc2c(=O)[nH]1

IC50 [10]: 6450 nM
Compound: O=c1nc(-c2ccncc2)cc(-c2cccs2)[nH]1
Ratio IC50 [7]: 1.9

IC50 [3]: 660 nM
Ratio IC50 [4]: 6.36
Compound: CCCCCCSc1nc2c(=O)[nH]c(O)nc2[nH]1

IC50 [3]: 3880 nM
Ratio IC50 [4]: 1.08
Compound: CCCCSc1nc(O)c2[nH]cnc2n1

Ratio IC50 [1]: 2.65
IC50 [2]: 2000 to 4220 nM
Compound: O=C(/C=C/c1ccc2c(c1)O[C@H](c1ccc(O)c(O)c1)[C@@H](C(=O)O)O2)O/C=C\c1ccc(O)c(O)c1

Compound: Oc1ncnc2[nH]ncc12 [ALLOPURINOL]
IC50 [2]: 5300 nM

IC50 [12]: 50 nM
Ratio IC50 [1]: 8
Compound: O=c1oc2c(O)ccc(-c3oc4cc(O)cc(O)c4c(=O)c3O)c2s1

IC50 [14]: 20900 nM
Compound: O=[N+]([O-])c1cccc(C2Nc3ccccc3-c3cc(-c4ccccc4)nn32)c1 (stereo not drawn)
Ratio IC50 [8]: 1.51
